Results: patent US7253154B2, “Substituted thiazolopyrimidines as xanthine oxidase inhibitors” (Nippon Chemiphar Co., Ltd., priority 2001, dated 2007)

Key:
[1] = target: T1, Cow milk Xanthine Oxidase (Bos taurus, UniProt P80457); assay: Xanthine oxidase inhibiting action, in vitro test (oxidation of xanthine, absorbance OD 290); format: biochemical; conditions: Cow milk xanthine oxidase (Roche), xanthine substrate, 50 mM phosphate buffer pH 7.5, 37° C., 15 min
T1 construct: Cow milk Xanthine Oxidase (Roche); purchased Roche; host or cells: cow milk
T1 sequence (P80457 whole entry): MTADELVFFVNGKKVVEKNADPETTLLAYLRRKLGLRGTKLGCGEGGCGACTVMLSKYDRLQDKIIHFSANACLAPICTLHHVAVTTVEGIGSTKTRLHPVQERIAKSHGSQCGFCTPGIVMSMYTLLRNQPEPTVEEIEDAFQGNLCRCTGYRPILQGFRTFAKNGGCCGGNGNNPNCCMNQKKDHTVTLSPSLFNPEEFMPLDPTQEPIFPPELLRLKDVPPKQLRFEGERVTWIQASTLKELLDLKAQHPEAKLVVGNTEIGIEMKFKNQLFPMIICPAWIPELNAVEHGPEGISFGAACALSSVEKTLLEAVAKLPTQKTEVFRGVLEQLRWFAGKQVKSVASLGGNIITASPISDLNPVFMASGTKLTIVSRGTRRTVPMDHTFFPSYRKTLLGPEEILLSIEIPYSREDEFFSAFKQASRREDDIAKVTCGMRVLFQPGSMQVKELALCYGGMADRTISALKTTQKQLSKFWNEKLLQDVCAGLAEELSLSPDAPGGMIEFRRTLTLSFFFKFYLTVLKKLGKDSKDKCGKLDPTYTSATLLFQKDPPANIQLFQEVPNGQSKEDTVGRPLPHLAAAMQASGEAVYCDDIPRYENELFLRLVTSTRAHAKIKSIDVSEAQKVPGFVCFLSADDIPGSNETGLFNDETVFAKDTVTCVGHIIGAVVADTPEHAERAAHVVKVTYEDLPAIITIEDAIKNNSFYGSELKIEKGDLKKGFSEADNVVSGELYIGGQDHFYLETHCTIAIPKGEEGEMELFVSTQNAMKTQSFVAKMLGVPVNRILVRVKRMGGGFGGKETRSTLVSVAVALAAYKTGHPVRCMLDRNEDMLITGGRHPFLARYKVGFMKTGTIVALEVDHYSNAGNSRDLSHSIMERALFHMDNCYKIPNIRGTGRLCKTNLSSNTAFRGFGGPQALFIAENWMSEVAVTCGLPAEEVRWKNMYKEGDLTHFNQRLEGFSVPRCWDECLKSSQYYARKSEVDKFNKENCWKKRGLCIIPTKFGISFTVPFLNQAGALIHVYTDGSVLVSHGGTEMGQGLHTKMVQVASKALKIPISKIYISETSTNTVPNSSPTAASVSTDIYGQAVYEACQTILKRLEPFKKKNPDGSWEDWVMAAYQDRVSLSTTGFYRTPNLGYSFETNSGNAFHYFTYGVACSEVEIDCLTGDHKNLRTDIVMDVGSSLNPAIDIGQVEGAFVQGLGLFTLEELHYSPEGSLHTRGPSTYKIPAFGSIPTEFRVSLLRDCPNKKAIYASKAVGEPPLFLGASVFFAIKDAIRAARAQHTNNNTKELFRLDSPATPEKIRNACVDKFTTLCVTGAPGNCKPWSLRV
Description: Pharmacological Experiment 1 (In Vitro Test)
1. Preparation of Test Sample
250 gL of each of the solutions of the test compound having different concentrations was added to 1 mL of a solution of Xanthine (SIGMA, 300 µM) in the 50 mM phosphor buffer (pH 7.5). The mixture was then pre-incubated at 37° C. for 10 min. Subsequently, to the pre-incubated mixture was added […] of Cow milk Xanthine Oxidase (Roche) diluted with the 50 mM phosphate buffer (pH 7.5) to give a solution of 30 mU concentration. The mixture was then kept at 37° C. for 15 min for performing a reaction. The reaction was terminated by addition of 1N hydrochloric acid. Subsequently, the absorbance ([…]) was measured by means of a spectrophotometer (HITACHI U-2000), to obtain the inhibition ratio.
The inhibition ratio was calculated according to the following formula: Inhibition ratio(%)=[1−(B−C)/(A−C)]×100
B: absorbance measured in the case of using test compound

xanthine oxidase = target: T2, xanthine oxidase (Mus musculus, UniProt Q00519); assay: In vivo test: uric acid value in plasma of mouse after oral administration; conditions: ICR mouse, 3 mg/10 mL/kg single oral administration, blood collected after one hour
T2 construct: ICR mouse (Japan Charles River Co., Ltd., 6 W) was employed as test animal; from tissue; host or cells: living ICR mouse (whole animal; plasma uric acid measured)
T2 sequence (Q00519 whole entry): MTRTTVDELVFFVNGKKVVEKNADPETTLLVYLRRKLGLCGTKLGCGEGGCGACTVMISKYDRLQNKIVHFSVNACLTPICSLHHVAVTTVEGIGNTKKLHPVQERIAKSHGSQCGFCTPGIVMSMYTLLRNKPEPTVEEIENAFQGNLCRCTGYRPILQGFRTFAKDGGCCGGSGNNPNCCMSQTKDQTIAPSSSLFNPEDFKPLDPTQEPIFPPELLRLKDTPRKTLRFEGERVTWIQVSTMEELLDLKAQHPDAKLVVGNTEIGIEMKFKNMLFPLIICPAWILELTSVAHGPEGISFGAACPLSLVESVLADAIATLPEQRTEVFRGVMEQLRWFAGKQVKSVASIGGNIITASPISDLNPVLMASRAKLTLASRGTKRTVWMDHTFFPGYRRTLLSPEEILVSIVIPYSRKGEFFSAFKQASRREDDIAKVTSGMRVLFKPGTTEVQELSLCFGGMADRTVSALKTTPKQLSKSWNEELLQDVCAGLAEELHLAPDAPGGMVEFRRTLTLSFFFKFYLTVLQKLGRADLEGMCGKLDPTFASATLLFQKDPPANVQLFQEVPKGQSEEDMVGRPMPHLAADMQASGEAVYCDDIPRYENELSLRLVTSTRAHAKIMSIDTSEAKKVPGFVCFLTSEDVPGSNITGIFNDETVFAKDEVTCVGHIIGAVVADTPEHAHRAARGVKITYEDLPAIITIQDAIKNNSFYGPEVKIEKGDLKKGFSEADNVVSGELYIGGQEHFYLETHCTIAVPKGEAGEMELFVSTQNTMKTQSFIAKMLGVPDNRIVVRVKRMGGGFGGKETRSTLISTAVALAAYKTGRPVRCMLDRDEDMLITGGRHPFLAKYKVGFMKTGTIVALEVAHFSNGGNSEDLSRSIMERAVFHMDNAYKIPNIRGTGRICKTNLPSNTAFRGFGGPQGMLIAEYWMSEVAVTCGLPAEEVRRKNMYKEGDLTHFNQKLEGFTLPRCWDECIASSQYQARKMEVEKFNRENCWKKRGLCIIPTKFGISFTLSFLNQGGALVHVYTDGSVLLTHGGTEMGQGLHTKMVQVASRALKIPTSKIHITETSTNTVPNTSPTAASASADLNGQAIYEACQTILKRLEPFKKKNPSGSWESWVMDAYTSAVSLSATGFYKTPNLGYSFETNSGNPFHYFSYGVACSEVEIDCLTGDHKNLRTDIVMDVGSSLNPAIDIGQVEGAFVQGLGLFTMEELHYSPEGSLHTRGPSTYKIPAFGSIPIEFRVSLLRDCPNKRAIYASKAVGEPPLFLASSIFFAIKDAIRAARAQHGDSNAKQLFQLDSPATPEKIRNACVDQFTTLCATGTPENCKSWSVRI
Text: The xanthine oxidase inhibiting action was further confirmed in vivo tests by measuring the uric acid concentration in a plasma obtained from mouse into which the compound of the invention had been orally administered. See Example 1-B, Table 21.
Pharmacological Experiment 2 (In Vivo Test)
1. Test Animals, and Grouping
ICR mouse (Japan Charles River Co., Ltd., 6 W) was employed as test animal. One group comprised mice, and a vehicle control group was set for each experiment.
2. Preparation and Administration of the Test Compound
The test compound was suspended in aqueous […] methylcellulose solution to for administration.
Dosage is 3 mg/10 mL/kg for each of the control groups and all test groups. The administration was made by single oral administration.
3. Procedure of Experiment
The test compound was orally administered once, and the whole blood was collected from main artery in the presence of heparin after one hour. From the collected whole blood was separated plasma in the conventional manner, and the plasma was subjected to measurement of uric acid value by the enzyme method by means of an automatic analytical apparatus (HITACHI 7060E).
The inhibition ratio was calculated according to the following formula: Inhibition ratio(%)=[…]
A: average uric acid value in plasma of the group into which the test compound was administered.
B: average uric acid value in plasma of the vehicle control group

SMILES	IC50 [1] [nM]	Inhibition ratio (plasma uric acid value vs vehicle control group) (xanthine oxidase) [%]
CC(C)COc1ccc(-c2nc3ncnc(Cl)c3[nH]2)cc1[N+](=O)[O-] [Example 1-A, 8-(4-Isobutoxy-3-nitrophenyl)-6-chloropurine]	63.2	–
CC(C)COc1ccc(-c2nc3ncnc(N)c3[nH]2)cc1[N+](=O)[O-] [Example 6, 6-Amino-8-(4-isobutoxy-3-nitrophenyl)purine]	75.9	63.8
CC(C)COc1ccc(-c2nc3ccncc3[nH]2)cc1[N+](=O)[O-] [Example 9, 2-(4-Isobutoxy-3-nitrophenyl)-3H-imidazo[4,5-c]pyridine]	58.4	–
CC(C)COc1ccc(-c2nc3c(O)cccc3[nH]2)cc1[N+](=O)[O-] [Example 7, 4-Hydroxy-2-(4-isobutoxy-3-nitrophenyl)-1H-benzimidazole]	102	–
CC(C)COc1ccc(-c2nc3cccc(C(=O)O)c3o2)cc1[N+](=O)[O-] [Example 8, 2-(4-Isobutoxy-3-nitrophenyl)benzoxazole-7carboxylic acid]	18.6	56.8
CC(C)COc1ccc(-c2nc3ncnc(O)c3[nH]2)cc1[N+](=O)[O-] [Example 2, 8-(4-Isobutoxy-3-nitrophenyl)-6-hydroxypurine]	11.1	–
CC(C)COc1ccc(-c2nc3c(N)ncnc3o2)cc1[N+](=O)[O-] [Example 1-B, 6-amino-8-(4-isobutoxy-3-nitrophenyl)oxazolo[4,5-d]pyrimidine]	44.8	60.7
CC(C)COc1ccc(-c2nc3cccc(C(=O)O)c3s2)cc1C#N [Example 10, 2-(3-Cyano-4-isobutyloxyphenyl)-1,3-benzothiazole-7-carboxylic acid]	50	56.1
CC(C)COc1ccc(-c2nc3cccc(O)c3s2)cc1C#N [Example 12, 2-(3-Cyano-4-isobutyloxyphenyl)-7-hydroxy 1,3-benzothiazole]	161	–
CC(C)COc1ccc(-c2nc3c(C(=O)O)cccc3[nH]2)cc1C#N [Example 11, 2-(3-Cyano-4-isobutyloxyphenyl)benzimidazole-7-carboxylic acid]	22.3	51.4
